In brackets after ≈: the same amount, converted by molar mass. Each block holds one molecule with its values, some of them ahead of it.
What was measured:
[1] = tested on: Staphylococcus aureus; assay: Anti-bacterial activity against methicillin-resistant Staphylococcus aureus ATCC 700699 measured after 24 hrs by microtiter broth dilution method; format: functional; conditions: Mu50, 24 h
[2] = tested on: Escherichia coli; assay: Anti-bacterial activity against Escherichia coli ATCC 11303 measured after 24 hrs by microtiter broth dilution method; format: functional; conditions: ATCC 11303, 24 h
[3] = tested on: Bacillus subtilis; assay: Anti-bacterial activity against Bacillus subtilis ATCC 33712 measured after 24 hrs by microtiter broth dilution method; format: functional; conditions: ATCC 33712, 24 h
[4] = tested on: Candida albicans; assay: microbe, parasite or virus in culture; format: functional; conditions: ATCC 10231, 24 h
Description: Anti-fungal activity against Candida albicans ATCC 10231 measured after 24 hrs by microtiter broth dilution method

[5] = tested on: Staphylococcus aureus; assay: Anti-bacterial activity against Staphylococcus aureus ATCC 10832 measured after 24 hrs by microtiter broth dilution method; format: functional; conditions: ATCC 10832, 24 h
[6] = tested on: Bacillus subtilis; assay: Potency index, ratio of ceftazidime IC50 to compound IC50 for anti-bacterial activity against Bacillus subtilis ATCC 33712; format: functional
[7] = tested on: Bacillus subtilis; assay: Potency index, ratio of sodium penicillin IC50 to compound IC50 for anti-bacterial activity against Bacillus subtilis ATCC 33712; format: functional
[8] = tested on: Bacillus subtilis; assay: Potency index, ratio of Cefradine MIC to compound MIC for anti-bacterial activity against Bacillus subtilis ATCC 33712
[9] = tested on: Bacillus subtilis; assay: Potency index, ratio of Cefotaxime IC50 to compound IC50 for anti-bacterial activity against Bacillus subtilis ATCC 33712; format: functional

Structure (SMILES): Cc1oc(-c2ccccc2)nc1CCCc1nc2cc(C[C@H](Oc3ccc(C(C)(C)C)cc3)C(=O)O)ccc2o1
- MIC [1]: 1.56 µg/mL (≈ 2.9 µM)
- MIC [2]: 3.12 µg/mL (≈ 5.79 µM)
- MIC [3]: 3.12 µg/mL (≈ 5.79 µM)
- MIC [4]: > 200 µg/mL
- MIC [5]: 1.56 µg/mL (≈ 2.9 µM)

Structure (SMILES): CC(C)(C)c1ccc(O[C@@H](Cc2ccc3oc(CCc4cn5cc(C(F)(F)F)ccc5n4)nc3c2)C(=O)O)cc1
- MIC [1]: 25 µg/mL (≈ 45.3 µM)
- MIC [2]: > 200 µg/mL
- MIC [3]: 50 µg/mL (≈ 90.7 µM)
- MIC [4]: > 200 µg/mL
- MIC [5]: 50 µg/mL (≈ 90.7 µM)

Structure (SMILES): CCCCCCCc1nc2cc(C[C@H](Oc3ccc(C(C)(C)C)cc3)C(=O)O)ccc2o1
- MIC [1]: 1.56 µg/mL (≈ 3.57 µM)
- MIC [2]: 1.56 µg/mL (≈ 3.57 µM)
- MIC [3]: 0.78 µg/mL (≈ 1.78 µM)
- MIC [4]: > 200 µg/mL
- MIC [5]: 0.78 µg/mL (≈ 1.78 µM)

Structure (SMILES): Cc1oc(-c2ccccc2)nc1CCc1nc2cc(C[C@H](Oc3ccc(C(C)(C)C)cc3)C(=O)O)ccc2o1
- MIC [1]: 0.78 µg/mL (≈ 1.49 µM)
- MIC [2]: 1.56 µg/mL (≈ 2.97 µM)
- MIC [3]: 0.78 µg/mL (≈ 1.49 µM)
- MIC [4]: > 200 µg/mL
- MIC [5]: 1.56 µg/mL (≈ 2.97 µM)

Structure (SMILES): CC(C)c1ccc(CCc2nc3cc(C[C@H](Oc4ccc(C(C)(C)C)cc4)C(=O)O)ccc3o2)cc1
- MIC [1]: 0.195 µg/mL (≈ 0.402 µM)
- Ratio IC50 [6]: 8 - 510
- Ratio IC50 [7]: 2
- MIC [2]: 0.78 µg/mL (≈ 1.61 µM)
- MIC [3]: 0.098 µg/mL (≈ 0.202 µM)
- Ratio MIC [8]: 8 - 510
- Ratio IC50 [9]: 8 - 510
- MIC [4]: > 200 µg/mL
- MIC [5]: 0.39 µg/mL (≈ 0.803 µM)

Structure (SMILES): CC(C)(C)c1ccc(O[C@@H](Cc2ccc3oc(CCc4ncco4)nc3c2)C(=O)O)cc1
- MIC [1]: 200 µg/mL (≈ 460 µM)
- MIC [2]: > 200 µg/mL
- MIC [3]: 200 µg/mL (≈ 460 µM)
- MIC [4]: > 200 µg/mL
- MIC [5]: > 200 µg/mL

- MIC [2]: > 200 µg/mL
- MIC [3]: 200 µg/mL (≈ 457 µM)
- MIC [4]: > 200 µg/mL
Structure (SMILES): CC(C)(C)c1ccc(O[C@@H](Cc2ccc3oc(CC4CCOCC4)nc3c2)C(=O)O)cc1

Structure (SMILES): COc1cc(CCc2nc3cc(C[C@H](Oc4ccc(C(C)(C)C)cc4)C(=O)O)ccc3o2)cc(OC)c1OC
- MIC [1]: 100 µg/mL (≈ 187 µM)
- MIC [2]: 200 µg/mL (≈ 375 µM)
- MIC [3]: 100 µg/mL (≈ 187 µM)
- MIC [4]: > 200 µg/mL
- MIC [5]: 100 µg/mL (≈ 187 µM)

- MIC [2]: 3.12 µg/mL (≈ 7.89 µM)
- MIC [3]: 1.56 µg/mL (≈ 3.94 µM)
- MIC [4]: > 200 µg/mL
Structure (SMILES): CC(C)Cc1nc2cc(C[C@H](Oc3ccc(C(C)(C)C)cc3)C(=O)O)ccc2o1

Structure (SMILES): CC(C)(C)c1ccc(O[C@@H](Cc2ccc3oc(CCc4ccccc4)nc3c2)C(=O)O)cc1
- MIC [1]: 1.56 µg/mL (≈ 3.52 µM)
- MIC [2]: 3.12 µg/mL (≈ 7.03 µM)
- MIC [3]: 0.39 µg/mL (≈ 0.879 µM)
- MIC [4]: > 200 µg/mL
- MIC [5]: 1.56 µg/mL (≈ 3.52 µM)

Structure (SMILES): CC(C)(C)c1ccc(O[C@@H](Cc2ccc3oc(CCc4cc5ccccc5o4)nc3c2)C(=O)O)cc1
- MIC [1]: 0.78 µg/mL (≈ 1.61 µM)
- MIC [2]: 0.78 µg/mL (≈ 1.61 µM)
- MIC [3]: 0.39 µg/mL (≈ 0.807 µM)
- MIC [4]: > 200 µg/mL
- MIC [5]: 0.78 µg/mL (≈ 1.61 µM)

Structure (SMILES): CC(C)(C)c1ccc(O[C@@H](Cc2ccc3oc(CCc4ccc(F)cc4)nc3c2)C(=O)O)cc1
- MIC [1]: 1.56 µg/mL (≈ 3.38 µM)
- MIC [2]: 1.56 µg/mL (≈ 3.38 µM)
- MIC [3]: 0.39 µg/mL (≈ 0.845 µM)
- MIC [4]: > 200 µg/mL
- MIC [5]: 1.56 µg/mL (≈ 3.38 µM)

Structure (SMILES): CO/N=C(\C(=O)N[C@@H]1C(=O)N2C(C(=O)O)=C(COC(C)=O)CS[C@H]12)c1csc(N)n1 [CEFOTAXIME]
- MIC [1]: 3.12 µg/mL (≈ 6.85 µM)
- MIC [2]: 200 µg/mL (≈ 439 µM)
- MIC [3]: 0.78 µg/mL (≈ 1.71 µM)
- MIC [5]: 3.12 µg/mL (≈ 6.85 µM)

Structure (SMILES): CC(C)(O/N=C(\C(=O)N[C@@H]1C(=O)N2C(C(=O)[O-])=C(C[n+]3ccccc3)CS[C@H]12)c1csc(N)n1)C(=O)O [CEFTAZIDIME]
- MIC [1]: 12.5 µg/mL (≈ 22.9 µM)
- MIC [2]: 200 µg/mL (≈ 366 µM)
- MIC [3]: 6.25 µg/mL (≈ 11.4 µM)
- MIC [5]: 0.78 µg/mL (≈ 1.43 µM)

Structure (SMILES): CC1=C(C(=O)O)N2C(=O)[C@@H](NC(=O)[C@H](N)C3=CCC=CC3)[C@H]2SC1 [CEPHRADINE]
- MIC [1]: 50 µg/mL (≈ 143 µM)
- MIC [2]: 25 µg/mL (≈ 71.5 µM)
- MIC [3]: 50 µg/mL (≈ 143 µM)
- MIC [5]: 25 µg/mL (≈ 71.5 µM)

Structure (SMILES): CC(=O)N1CCN(c2ccc(OCC3COC(Cn4ccnc4)(c4ccc(Cl)cc4Cl)O3)cc2)CC1 (stereo not drawn) [KETOCONAZOLE]
- MIC [4]: < 0.39 µg/mL

Structure (SMILES): Clc1ccc(COC(Cn2ccnc2)c2ccc(Cl)cc2Cl)c(Cl)c1.O=[N+]([O-])O (stereo not drawn) [MICONAZOLE NITRATE]
- MIC [4]: 1.56 µg/mL

Structure (SMILES): CC1(C)S[C@@H]2[C@H](NC(=O)Cc3ccccc3)C(=O)N2[C@H]1C(=O)[O-].[Na+] [PENICILLIN G SODIUM]
- MIC [1]: 3.12 µg/mL
- MIC [2]: 0.78 µg/mL
- MIC [3]: 0.195 µg/mL
- MIC [5]: 3.12 µg/mL
